# Reference: PMC7523345 (Investigational new drugs, 2018)
# Entries after “also recorded” stand apart in the source; their conditions may differ.
# Assay: Phase I dose escalation study: safety, tolerability, DLT and MTD
# Format: in vivo
smiles,measurement,setting,value
Cc1cccc2c1NC(=O)[C@@H](NC(=O)[C@H](CCC(F)(F)F)[C@H](CCC(F)(F)F)C(N)=O)N=C2c1cccc(F)c1 [BMS-986115],"Rash maculopapular (drug related AE, all grades)",Arm A QD 0.6 mg (N = 2),0 n (%)
same,"Sinusitis (drug related AE, all grades)",Arm A QD 0.6 mg (N = 2),0 n (%)
same,"Urticaria (drug related AE, Grade 3 and 4)",Arm A QD 0.6 mg (N = 2),0 n (%)
same,"Vision blurred (drug related AE, all grades)",Arm A QD 0.6 mg (N = 2),0 n (%)
same,"Vomiting (drug related AE, Grade 3 and 4)",Arm A QD 0.6 mg (N = 2),0 n (%)
same,"Vomiting (drug related AE, all grades)",Arm A QD 0.6 mg (N = 2),1 (50) n (%)
same,"Weight decreased (drug related AE, all grades)",Arm A QD 0.6 mg (N = 2),0 n (%)
same,No. of patients with DLTs,"Arm A QD 0.6 mg, 2 DLT evaluable patients",0
same,"Abdominal distension (drug related AE, all grades)",Arm A QD 1.2 mg (N = 6),0 n (%)
same,"Abdominal pain (drug related AE, Grade 3 and 4)",Arm A QD 1.2 mg (N = 6),0 n (%)
same,"Abdominal pain (drug related AE, all grades)",Arm A QD 1.2 mg (N = 6),0 n (%)
same,"Blood creatinine increased (drug related AE, all grades)",Arm A QD 1.2 mg (N = 6),0 n (%)
same,"Colitis (drug related AE, Grade 3 and 4)",Arm A QD 1.2 mg (N = 6),1 (17) n (%)
same,"Cough (drug related AE, Grade 3 and 4)",Arm A QD 1.2 mg (N = 6),0 n (%)
same,"Cough (drug related AE, all grades)",Arm A QD 1.2 mg (N = 6),0 n (%)
same,"Decreased Appetite (drug related AE, Grade 3 and 4)",Arm A QD 1.2 mg (N = 6),0 n (%)
same,"Decreased Appetite (drug related AE, all grades)",Arm A QD 1.2 mg (N = 6),2 (33) n (%)
same,"Dehydration (drug related AE, Grade 3 and 4)",Arm A QD 1.2 mg (N = 6),0 n (%)
same,"Dehydration (drug related AE, all grades)",Arm A QD 1.2 mg (N = 6),2 (33) n (%)
same,"Dermatitis acneiform (drug related AE, all grades)",Arm A QD 1.2 mg (N = 6),0 n (%)
same,"Diarrhoea (drug related AE, Grade 3 and 4)",Arm A QD 1.2 mg (N = 6),1 (17) n (%)
same,"Diarrhoea (drug related AE, all grades)",Arm A QD 1.2 mg (N = 6),6 (100) n (%)
same,"Dry mouth (drug related AE, all grades)",Arm A QD 1.2 mg (N = 6),1 (17) n (%)
same,"Dry skin (drug related AE, all grades)",Arm A QD 1.2 mg (N = 6),1 (17) n (%)
same,"Dysgeusia (drug related AE, all grades)",Arm A QD 1.2 mg (N = 6),2 (33) n (%)
same,"Dyspepsia (drug related AE, all grades)",Arm A QD 1.2 mg (N = 6),1 (17) n (%)
same,"Dysphonia (drug related AE, all grades)",Arm A QD 1.2 mg (N = 6),0 n (%)
same,"Fatigue (drug related AE, Grade 3 and 4)",Arm A QD 1.2 mg (N = 6),0 n (%)
same,"Fatigue (drug related AE, all grades)",Arm A QD 1.2 mg (N = 6),2 (33) n (%)
same,"Flatulence (drug related AE, all grades)",Arm A QD 1.2 mg (N = 6),0 n (%)
same,"Hypocalcaemia (drug related AE, Grade 3 and 4)",Arm A QD 1.2 mg (N = 6),0 n (%)
same,"Hypocalcaemia (drug related AE, all grades)",Arm A QD 1.2 mg (N = 6),0 n (%)
same,"Hypokalaemia (drug related AE, Grade 3 and 4)",Arm A QD 1.2 mg (N = 6),1 (17) n (%)
same,"Hypokalaemia (drug related AE, all grades)",Arm A QD 1.2 mg (N = 6),3 (50) n (%)
same,"Hyponatraemia (drug related AE, Grade 3 and 4)",Arm A QD 1.2 mg (N = 6),0 n (%)
same,"Hyponatraemia (drug related AE, all grades)",Arm A QD 1.2 mg (N = 6),0 n (%)
same,"Hypophosphataemia (drug related AE, Grade 3 and 4)",Arm A QD 1.2 mg (N = 6),2 (33) n (%)
same,"Hypophosphataemia (drug related AE, all grades)",Arm A QD 1.2 mg (N = 6),6 (100) n (%)
same,"Ileus (drug related AE, Grade 3 and 4)",Arm A QD 1.2 mg (N = 6),0 n (%)
same,"Increased upper airway secretion (drug related AE, all grades)",Arm A QD 1.2 mg (N = 6),0 n (%)
same,"Laryngeal pain (drug related AE, all grades)",Arm A QD 1.2 mg (N = 6),0 n (%)
same,"Leucocytosis (drug related AE, Grade 3 and 4)",Arm A QD 1.2 mg (N = 6),0 n (%)
same,"Mouth ulceration (drug related AE, all grades)",Arm A QD 1.2 mg (N = 6),1 (17) n (%)
same,"Nausea (drug related AE, Grade 3 and 4)",Arm A QD 1.2 mg (N = 6),0 n (%)
same,"Nausea (drug related AE, all grades)",Arm A QD 1.2 mg (N = 6),4 (67) n (%)
same,"Pruritus (drug related AE, Grade 3 and 4)",Arm A QD 1.2 mg (N = 6),0 n (%)
same,"Pruritus (drug related AE, all grades)",Arm A QD 1.2 mg (N = 6),0 n (%)
same,"Pulmonary embolism (drug related AE, Grade 3 and 4)",Arm A QD 1.2 mg (N = 6),0 n (%)
same,"Rash (drug related AE, all grades)",Arm A QD 1.2 mg (N = 6),3 (50) n (%)
same,"Rash maculopapular (drug related AE, all grades)",Arm A QD 1.2 mg (N = 6),0 n (%)
same,"Sinusitis (drug related AE, all grades)",Arm A QD 1.2 mg (N = 6),1 (17) n (%)
same,"Urticaria (drug related AE, Grade 3 and 4)",Arm A QD 1.2 mg (N = 6),0 n (%)
same,"Vision blurred (drug related AE, all grades)",Arm A QD 1.2 mg (N = 6),0 n (%)
same,"Vomiting (drug related AE, Grade 3 and 4)",Arm A QD 1.2 mg (N = 6),0 n (%)
same,"Vomiting (drug related AE, all grades)",Arm A QD 1.2 mg (N = 6),2 (33) n (%)
same,"Weight decreased (drug related AE, all grades)",Arm A QD 1.2 mg (N = 6),1 (17) n (%)
same,Description of DLT,Arm A QD 1.5 mg,Gr 3 nausea; also recorded: G3 nausea
same,Description of study drug toxicity that led to treatment discontinuation,Arm A QD 1.5 mg,G3 Nausea concurrent with G2 diarrhoea (N = 1); also recorded: G2 Dermatitis acneiform (N = 1)
same,"Abdominal distension (drug related AE, all grades)",Arm A QD 1.5 mg (N = 7),1 (14) n (%)
same,"Abdominal pain (drug related AE, Grade 3 and 4)",Arm A QD 1.5 mg (N = 7),1 (14) n (%)
same,"Abdominal pain (drug related AE, all grades)",Arm A QD 1.5 mg (N = 7),1 (14) n (%)
same,"Blood creatinine increased (drug related AE, all grades)",Arm A QD 1.5 mg (N = 7),0 n (%)
same,"Colitis (drug related AE, Grade 3 and 4)",Arm A QD 1.5 mg (N = 7),0 n (%)
same,"Cough (drug related AE, Grade 3 and 4)",Arm A QD 1.5 mg (N = 7),0 n (%)
same,"Cough (drug related AE, all grades)",Arm A QD 1.5 mg (N = 7),2 (29) n (%)
same,"Decreased Appetite (drug related AE, Grade 3 and 4)",Arm A QD 1.5 mg (N = 7),0 n (%)
same,"Decreased Appetite (drug related AE, all grades)",Arm A QD 1.5 mg (N = 7),1 (14) n (%)
same,"Dehydration (drug related AE, Grade 3 and 4)",Arm A QD 1.5 mg (N = 7),0 n (%)
same,"Dehydration (drug related AE, all grades)",Arm A QD 1.5 mg (N = 7),0 n (%)
same,"Dermatitis acneiform (drug related AE, all grades)",Arm A QD 1.5 mg (N = 7),4 (57) n (%)
